How the values were obtained:
[1] = TP_TRANSPORTER: drug resistance(Mitoxantrone) in BCRP-expressing K562 cells
[2] = TP_TRANSPORTER: drug resistance(SN-38) in BCRP-expressing K562 cells

Compound	IC50 [1] [nM]	IC50 [2] [nM]
CC/C(=C(/CC)c1ccc(O)cc1)c1ccc(O)cc1	500	> 500
CC/C(=C(/c1ccc(OCCN(C)C)cc1)c1ccc(OCc2ccc([N+](=O)[O-])cc2)cc1)c1ccccc1	1500	> 2000
CC/C(=C(/c1ccc(OCCN(C)C)cc1)c1ccc(OCc2ccccc2)cc1)c1ccccc1	> 2000	> 2000
CCC(=O)Oc1ccc(/C(CC)=C(\CC)c2ccc(OC(=O)CC)cc2)cc1 [propanoic acid [4-[(E)-4-[4-(1-oxopropoxy)phenyl]hex-3-en-3-yl]phenyl] ester]	> 3000	> 3000

From BindingDB's records for PubMed 12533678 (Japanese Foundation For Cancer Research, 2003)
